According to patent publication US12679878B2, “CRF2 receptor agonists and their use in therapy” (SANOFI, priority 2020, dated 2026):
Like-named read-outs stand apart in the source and are kept apart here. Starred links: 1 amine or outer side, 2 acyl side, 3 side chain; linkers in the order of their positions; H or OH if unused. Non-standard residues stand in square brackets, D forms with d. Residues, ends and D or L forms follow the SMILES beside them. Groups on a side chain read outwards from the residue. *: point of attachment. C20 diacid = O=C(O)CCCCCCCCCCCCCCCCCCC(=O)*; C18 diacid = O=C(O)CCCCCCCCCCCCCCCCC(=O)*; γGlu = O=C(O)[C@H](CCC(=O)[*:2])N[*:1]; AEEA = NCCOCCOCC(=O)O; Aib = CC(C)(N)C(=O)O

Biological target: T1, human CRF2α receptor (Homo sapiens, UniProt Q13324)
T1 construct: expressed in transfected cells; host or cells: TeloHEAC
T1 sequence (Q13324 1-411): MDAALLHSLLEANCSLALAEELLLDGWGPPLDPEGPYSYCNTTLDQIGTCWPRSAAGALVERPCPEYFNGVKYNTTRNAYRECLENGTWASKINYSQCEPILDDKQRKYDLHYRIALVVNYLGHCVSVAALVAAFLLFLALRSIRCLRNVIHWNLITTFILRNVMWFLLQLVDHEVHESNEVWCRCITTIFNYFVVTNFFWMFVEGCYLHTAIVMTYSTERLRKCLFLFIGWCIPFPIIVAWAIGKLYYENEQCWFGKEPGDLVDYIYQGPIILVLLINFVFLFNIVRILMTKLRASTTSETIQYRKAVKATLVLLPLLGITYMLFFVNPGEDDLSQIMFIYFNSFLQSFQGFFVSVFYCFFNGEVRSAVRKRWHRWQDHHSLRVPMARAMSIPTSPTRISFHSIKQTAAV
Assay: cAMP agonism at human CRF2 α receptor in TeloHEAC cells (Example 7)
Format: cell-based
Conditions: cAMP HTRF, TeloHEAC cells stably expressing human CRF2 α
In short: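 HTRF ratio 665/620 nm, read 1 h after lysis reagents, reports cAMP. Cells: thawed stocks, 2000/well, 30 min RT with compound in HBSS, 20 mM HEPES, 0 or 0.1% HSA, 2 mM IBMX. Activity normalised to UCN2 1000 nM = 100%; EC50 from half-maximal activation.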

[1] = 0% HSA, read-out: EC50 [nM], 0% HSA
[2] = 0.1% HSA, read-out: EC50 [nM], 0.1% HSA

Row | Compound | EC50 [1] [nM] | EC50 [2] [nM]
1 | CC[C@H](C)[C@H](NC(=O)[C@H](CCC(N)=O)NC(=O)[C@H](CCCCN)NC(=O)[C@H](CC(N)=O)NC(=O)[C@@H](NC(=O)[C@H](CCCCN)NC(=O)[C@H](C)NC(=O)[C@H](CCCCN)NC(=O)[C@H](CCC(N)=O)NC(=O)[C@H](CCCNC(=N)N)NC(=O)[C@H](CCC(N)=O)NC(=O)[C@H](CCCCN)NC(=O)[C@H](CCCCN)NC(=O)[C@H](CCC(N)=O)NC(=O)[C@H](CCCNC(=N)N)NC(=O)[C@H](CCC(=O)O)NC(=O)[C@H](CCC(N)=O)NC(=O)[C@H](CCCCN)NC(=O)[C@H](CC(C)C)NC(=O)[C@H](CC(C)C)NC(=O)[C@@H](NC(=O)[C@H](CCC(N)=O)NC(=O)[C@H](CCCCNC(=O)COCCOCCNC(=O)COCCOCCNC(=O)CC[C@H](NC(=O)CCCCCCCCCCCCCCCCC(=O)O)C(=O)O)NC(=O)[C@@H](NC(=O)[C@H](CCCCN)NC(=O)[C@@H](NC(=O)[C@@H]1CCCN1C(=O)[C@@H](NC(=O)[C@H](CC(=O)O)NC(=O)[C@H](CC(C)C)NC(=O)[C@H](CO)NC(=O)[C@H](CC(C)C)NC(=O)[C@@H](NC(=O)[C@@H](N)Cc1ccccc1)[C@@H](C)O)C(C)C)[C@@H](C)O)[C@@H](C)CC)[C@@H](C)CC)[C@@H](C)O)C(=O)N[C@@H](CC(C)C)C(=O)N[C@@H](CCC(=O)O)C(=O)N[C@@H](CCCNC(=N)N)C(=O)N[C@H](C(N)=O)C(C)C [compound 144] (H-FTLSLDVPTKIK([AEEA-AEEA-γGlu-C18 diacid])QILLKQERQKKQRQKAKTNKQILERV-NH2) | 1.36 | 76.3
2 | CC[C@H](C)[C@H](N)C(=O)N[C@H](C(=O)N[C@@H](CC(C)C)C(=O)N[C@@H](CO)C(=O)N[C@@H](CC(C)C)C(=O)N[C@@H](CC(=O)O)C(=O)N[C@H](C(=O)N1CCC[C@H]1C(=O)N[C@H](C(=O)NCC(=O)N[C@@H](CC(C)C)C(=O)N[C@@H](CCCCNC(=O)COCCOCCNC(=O)COCCOCCNC(=O)CC[C@H](NC(=O)CCCCCCCCCCCCCCCCC(=O)O)C(=O)O)C(=O)N[C@@H](CCC(N)=O)C(=O)N[C@H](C(=O)N[C@@H](CC(C)C)C(=O)N[C@@H](CC(C)C)C(=O)N[C@@H](CCC(=O)O)C(=O)N[C@@H](CCC(N)=O)C(=O)N[C@@H](CCC(=O)O)C(=O)N[C@@H](CCCCN)C(=O)N[C@@H](CCC(N)=O)C(=O)N[C@@H](CCC(=O)O)C(=O)N[C@@H](CCCCN)C(=O)N[C@@H](CCC(=O)O)C(=O)N[C@@H](CCCCN)C(=O)N[C@@H](CCC(N)=O)C(=O)N[C@@H](CCC(N)=O)C(=O)N[C@@H](C)C(=O)N[C@@H](CCC(=O)O)C(=O)N[C@H](C(=O)N[C@@H](CC(N)=O)C(=O)N[C@@H](CCCCN)C(=O)N[C@@H](CCCNC(=N)N)C(=O)N[C@H](C(=O)N[C@@H](CC(C)C)C(=O)N[C@@H](CCC(=O)O)C(=O)N[C@@H](CCCNC(=N)N)C(=O)N[C@H](C(N)=O)C(C)C)[C@@H](C)CC)[C@@H](C)O)[C@@H](C)CC)[C@@H](C)CC)C(C)C)C(C)C [compound 154] (H-IVLSLDVPIGLK([AEEA-AEEA-γGlu-C18 diacid])QILLEQEKQEKEKQQAETNKRILERV-NH2; N-terminus assumed) | 15 | 15.3
3 | CC[C@H](C)[C@H](N)C(=O)N[C@H](C(=O)N[C@@H](CC(C)C)C(=O)N[C@@H](CO)C(=O)N[C@@H](CC(C)C)C(=O)N[C@@H](CC(=O)O)C(=O)N[C@@H](C(=O)N1CCC[C@H]1C(=O)N[C@H](C(=O)N[C@@H](CCCCN)C(=O)N[C@@H](CC(C)C)C(=O)N[C@@H](CCCCNC(=O)COCCOCCNC(=O)COCCOCCNC(=O)CC[C@H](NC(=O)CCCCCCCCCCCCCCCCCCC(=O)O)C(=O)O)C(=O)N[C@@H](CCC(N)=O)C(=O)N[C@H](C(=O)N[C@@H](CC(C)C)C(=O)N[C@@H](CC(C)C)C(=O)N[C@@H](CCCCN)C(=O)N[C@@H](CCC(N)=O)C(=O)N[C@@H](C)C(=O)N[C@@H](CCCNC(=N)N)C(=O)N[C@@H](CCC(N)=O)C(=O)N[C@@H](CCCCN)C(=O)NC(C)(C)C(=O)N[C@@H](CCC(N)=O)C(=O)N[C@@H](CCCNC(=N)N)C(=O)N[C@@H](C)C(=O)N[C@@H](CCC(N)=O)C(=O)N[C@@H](C)C(=O)N[C@@H](CCC(=O)O)C(=O)N[C@@H](CCCCN)C(=O)N[C@@H](CC(N)=O)C(=O)N[C@@H](CCCCN)C(=O)N[C@@H](CCCNC(=N)N)C(=O)N[C@H](C(=O)N[C@@H](CC(C)C)C(=O)N[C@@H](CCC(=O)O)C(=O)N[C@@H](CCCNC(=N)N)C(=O)N[C@H](C(N)=O)C(C)C)[C@@H](C)CC)[C@@H](C)CC)[C@@H](C)CC)C(C)C)C(C)C [compound 175] (H-IVLSLD[dV]PIKLK([AEEA-AEEA-γGlu-C20 diacid])QILLKQARQK[Aib]QRAQAEKNKRILERV-NH2; N-terminus assumed) | 0.06 | 3.64

More lines, in order of falling EC50 [1], values ahead:

Row | EC50 [1] [nM] | EC50 [2] [nM] | Compound
4 | 33.7 | – | CC[C@H](C)[C@H](NC(C)=O)C(=O)N[C@H](C(=O)N[C@@H](CC(C)C)C(=O)N[C@@H](CO)C(=O)N[C@@H](CC(C)C)C(=O)N[C@@H](CC(=O)O)C(=O)N[C@H](C(=O)N1CCC[C@H]1C(=O)N[C@H](C(=O)NCC(=O)N[C@@H](CC(C)C)C(=O)N[C@@H](CCCCNC(=O)COCCOCCNC(=O)COCCOCCNC(=O)CC[C@H](NC(=O)CCCCCCCCCCCCCCCCC(=O)O)C(=O)O)C(=O)N[C@@H](CCC(N)=O)C(=O)N[C@H](C(=O)N[C@@H](CC(C)C)C(=O)N[C@@H](CC(C)C)C(=O)N[C@@H](CCC(=O)O)C(=O)N[C@@H](CCC(N)=O)C(=O)N[C@@H](CCC(=O)O)C(=O)N[C@@H](CCCCN)C(=O)N[C@@H](CCC(N)=O)C(=O)N[C@@H](CCC(=O)O)C(=O)N[C@@H](CCCCN)C(=O)N[C@@H](CCC(=O)O)C(=O)N[C@@H](CCCCN)C(=O)N[C@@H](CCC(N)=O)C(=O)N[C@@H](CCC(N)=O)C(=O)N[C@@H](C)C(=O)N[C@@H](CCC(=O)O)C(=O)N[C@H](C(=O)N[C@@H](CC(N)=O)C(=O)N[C@@H](C)C(=O)N[C@@H](CCC(N)=O)C(=O)N[C@H](C(=O)N[C@@H](CC(C)C)C(=O)N[C@@H](C)C(=O)N[C@@H](CCC(N)=O)C(=O)N[C@H](C(N)=O)C(C)C)[C@@H](C)CC)[C@@H](C)O)[C@@H](C)CC)[C@@H](C)CC)C(C)C)C(C)C [compound 153] (Ac-IVLSLDVPIGLK([AEEA-AEEA-γGlu-C18 diacid])QILLEQEKQEKEKQQAETNAQILAQV-NH2)
5 | 8.87 | – | CC[C@H](C)[C@H](N)C(=O)N[C@H](C(=O)N[C@@H](CC(C)C)C(=O)N[C@@H](CO)C(=O)N[C@@H](CC(C)C)C(=O)N[C@@H](CC(=O)O)C(=O)N[C@H](C(=O)N1CCC[C@H]1C(=O)N[C@H](C(=O)NCC(=O)N[C@@H](CC(C)C)C(=O)N[C@@H](CCCCNC(=O)COCCOCCNC(=O)COCCOCCNC(=O)CC[C@H](NC(=O)CCCCCCCCCCCCCCCCC(=O)O)C(=O)O)C(=O)N[C@@H](CCC(N)=O)C(=O)N[C@H](C(=O)N[C@@H](CC(C)C)C(=O)N[C@@H](CC(C)C)C(=O)N[C@@H](CCC(=O)O)C(=O)N[C@@H](CCC(N)=O)C(=O)N[C@@H](CCC(=O)O)C(=O)N[C@@H](CCCCN)C(=O)N[C@@H](CCC(N)=O)C(=O)N[C@@H](CCC(=O)O)C(=O)N[C@@H](CCCCN)C(=O)N[C@@H](CCC(=O)O)C(=O)N[C@@H](CCCCN)C(=O)N[C@@H](CCC(N)=O)C(=O)N[C@@H](CCC(N)=O)C(=O)N[C@@H](C)C(=O)N[C@@H](CCC(=O)O)C(=O)N[C@@H](CCCCN)C(=O)N[C@@H](CC(N)=O)C(=O)N[C@@H](CCCCN)C(=O)N[C@@H](CCCNC(=N)N)C(=O)N[C@H](C(=O)N[C@@H](CC(C)C)C(=O)N[C@@H](CCC(=O)O)C(=O)N[C@@H](CCCNC(=N)N)C(=O)N[C@H](C(N)=O)C(C)C)[C@@H](C)CC)[C@@H](C)CC)[C@@H](C)CC)C(C)C)C(C)C [compound 155] (H-IVLSLDVPIGLK([AEEA-AEEA-γGlu-C18 diacid])QILLEQEKQEKEKQQAEKNKRILERV-NH2)
6 | 1.46 | 96.9 | CC[C@H](C)[C@H](NC(=O)[C@H](CCC(N)=O)NC(=O)[C@H](CCCCN)NC(=O)[C@H](CC(N)=O)NC(=O)[C@H](CCCCN)NC(=O)[C@H](CCCCN)NC(=O)[C@H](C)NC(=O)[C@H](CCCCN)NC(=O)[C@H](CCC(N)=O)NC(=O)[C@H](CCCNC(=N)N)NC(=O)[C@H](CCC(N)=O)NC(=O)[C@H](CCCCN)NC(=O)[C@H](CCCCN)NC(=O)[C@H](CCC(N)=O)NC(=O)[C@H](CCCNC(=N)N)NC(=O)[C@H](CCC(=O)O)NC(=O)[C@H](CCC(N)=O)NC(=O)[C@H](CCCCN)NC(=O)[C@H](CC(C)C)NC(=O)[C@H](CC(C)C)NC(=O)[C@@H](NC(=O)[C@H](CCC(N)=O)NC(=O)[C@H](CCCCNC(=O)COCCOCCNC(=O)COCCOCCNC(=O)CC[C@H](NC(=O)CCCCCCCCCCCCCCCCC(=O)O)C(=O)O)NC(=O)[C@@H](NC(=O)[C@H](CCCCN)NC(=O)[C@@H](NC(=O)[C@@H]1CCCN1C(=O)[C@@H](NC(=O)[C@H](CC(=O)O)NC(=O)[C@H](CC(C)C)NC(=O)[C@H](CO)NC(=O)[C@H](CC(C)C)NC(=O)[C@@H](NC(=O)[C@@H](N)Cc1ccccc1)[C@@H](C)O)C(C)C)[C@@H](C)O)[C@@H](C)CC)[C@@H](C)CC)C(=O)N[C@@H](CC(C)C)C(=O)N[C@@H](CCC(=O)O)C(=O)N[C@@H](CCCNC(=N)N)C(=O)N[C@H](C(N)=O)C(C)C [compound 145] (H-FTLSLDVPTKIK([AEEA-AEEA-γGlu-C18 diacid])QILLKQERQKKQRQKAKKNKQILERV-NH2)
